Patent US20260250290A1 (BRISTOL-MYERS SQUIBB COMPANY, priority 2023, published 2026)

Each molecule was assayed against T1, full length SGK1 (Homo sapiens, UniProt O00141) (assay: SGK1 inhibition Assay A (Caliper LabChip electrophoretic separation of fluorescent peptide substrate and phosphorylated product)). Settings: Assay A; 20 μM ATP, 40 min incubation; read-out: SGK1 IC50.
T1 construct: 125 μM full length SGK1 (Life Technologies Part #PR7358A); purchased Life Technologies PR7358A
T1 sequence (O00141 1-431): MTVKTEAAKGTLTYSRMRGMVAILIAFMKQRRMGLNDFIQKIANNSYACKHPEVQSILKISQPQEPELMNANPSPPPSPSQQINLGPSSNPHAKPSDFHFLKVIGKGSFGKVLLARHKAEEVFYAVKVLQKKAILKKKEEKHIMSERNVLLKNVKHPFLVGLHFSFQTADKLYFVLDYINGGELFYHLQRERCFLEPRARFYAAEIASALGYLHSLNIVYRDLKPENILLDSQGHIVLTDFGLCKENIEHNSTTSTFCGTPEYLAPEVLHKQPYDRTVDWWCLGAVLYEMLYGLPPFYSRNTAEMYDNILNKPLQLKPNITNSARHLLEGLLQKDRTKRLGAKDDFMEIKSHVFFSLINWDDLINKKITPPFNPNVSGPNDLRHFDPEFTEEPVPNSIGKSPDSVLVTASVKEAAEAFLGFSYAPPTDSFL
Type: biochemical
For `C[C@@H]1CN(CCOc2cc(Cl)sc2C(=O)N[C@@H]2CCCN(c3cc(-c4ccnc(C(F)F)c4)n4ncnc(N)c34)C2)C[C@H](C)O1` [Example 296, N-((R)-1-(4-amino-7-(2-(difluoromethyl)pyridin-4-yl)pyrrolo[2,1-f][1,2,4]triazin-5-yl)piperidin-3-yl)-5-chloro-3-(2-((25,6R)-2,6-dimethylmorpholino)ethoxy)thiophone-2-carboxamide], the IC50 was 12 nM. With `Nc1ncnn2c(-c3ccnc(C(F)F)c3)cc(N3CCC[C@@H](NC(=O)c4sc(Cl)cc4OCCN4CC(F)(F)C4)C3)c12` [Example 297] the IC50 was 19 nM. With `CC(=O)N1CC=C(c2cc(N3CCC[C@@H](NC(=O)c4sc(Cl)cc4OCCN4CCNCC4)C3)c3c(N)ncnn23)C1` [Example 298, (R)-N-(1-(7-(1-acetyl-2,5-dihydro-1H-pyrrol-3-yl)-4-aminopyrrolo[2,1-f][1,2,4]triazin-5-yl)piperidin-3-yl)-5-chloro-3-(2-(piperazin-1-yl)ethoxy)thiophene-2-carboxamide] the IC50 was 14 nM. `CC(=O)N1CC=C(c2cc(N3CCC[C@@H](NC(=O)c4sc(Cl)cc4OCCN4CCC(C)(O)CC4)C3)c3c(N)ncnn23)C1` [Example 299, (R)-N-(1-(7-(1-acetyl-2,5-dihydro-1H-pyrrol-3-yl)-4-aminopyrrolo[2,1-f][1,2,4]triazin-5-yl)piperidin-3-yl)-5-chloro-3-(2-(4-hydroxy-4-methylpiperidin-1-yl)ethoxy)thiophene-2-carboxamide] was tested, and the IC50 was 7 nM. For `CC(=O)N1CC=C(c2cc(N3CCC[C@@H](NC(=O)c4sc(Cl)cc4OCCN4CCC(C)(N)CC4)C3)c3c(N)ncnn23)C1` [Example 300, (R)-N-(1-(7-(1-acetyl-2,5-dihydro-1H-pyrrol-3-yl)-4-aminopyrrolo[2,1-f][1,2,4]triazin-5-yl)piperidin-3-yl)-3-(2-(4-amino-4-methylpiperidin-1-yl)ethoxy)-5-chlorothiophene-2-carboxamide], the IC50 was 1 nM. For `CC(=O)N1CC=C(c2cc(N3CCC[C@@H](NC(=O)c4sc(Cl)cc4OCCNCC(F)F)C3)c3c(N)ncnn23)C1` [Example 301, (R)-N-(1-(7-(1-acetyl-2,5-dihydro-1H-pyrrol-3-yl)-4-aminopyrrolo[2,1-f][1,2,4]triazin-5-yl)piperidin-3-yl)-5-chloro-3-(2-((2,2-difluoroethyl)amino)ethoxy)thiophene-2-carboxamide], the IC50 was 14 nM. Work on `CN(C)CCOc1cc(C(F)F)sc1C(=O)N[C@@H]1CCCN(c2cc(-c3ccc(C(N)=O)c(F)c3)n3ncnc(N)c23)C1` [Example 302, (R)—N-(1-(4-amino-7-(4-carbamoyl-3-fluorophenyl)pyrrolo[2,1-f][1,2,4]triazin-5-yl)piperidin-3-yl)-5-(difluoromethyl)-3-(2-(dimethylamino)ethoxy)thiophene-2-carboxamide] yielded an IC50 of 4 nM. In the case of `COC(=O)N1CC=C(c2cc(N3CCC[C@@H](NC(=O)c4sc(C(F)F)cc4OCCN(C)C)C3)c3c(N)ncnn23)C1` [Example 303, Methyl (R)-3-(4-amino-5-(3-(5-(difluoromethyl)-3-(2-(dimethylamino)ethoxy)thiophene-2-carboxamido)piperidin-1 - yl)pyrrolo [2,1-f][1,2,4]triazin-7-yl)-2,5-dihydro-1H-pyrrole-1-carboxylate], the IC50 is reported as 10 nM. Work on `CN(C)CCOc1cc(C(F)F)sc1C(=O)N[C@@H]1CCCN(c2cc(-c3ccnc(N)c3)n3ncnc(N)c23)C1` [Example 304, (R)-N-(1-(4-amino-7-(2-aminopyridin-4-yl)pyrrolo [2,1-f][1,2,4]triazin-5-yl)piperidin-3-yl)-5-(difluoromethyl)-3-(2-(dimethylamino)ethoxy) thiophene-2-carboxamide] yielded an IC50 of 3 nM. `CC(=O)N1CC=C(c2cc(N3CCC[C@@H](NC(=O)c4sc(C(F)F)cc4OCCN(C)C)C3)c3c(N)ncnn23)C1` [Example 305, (R)-N-(1-(7-(1-acetyl-2,5-dihydro-1H-pyrrol-3-yl)-4-aminopyrrolo[2,1-f][1,2,4]triazin-5-yl)piperidin-3-yl)-5-(difluoromethyl)-3-(2-(dimethylamino)ethoxy)thiophene-2-carboxamide] gave an IC50 of 15 nM. `CN(C)CCOc1cc(C(F)F)sc1C(=O)N[C@@H]1CCCN(c2cc(-c3ccc(C(N)=O)nc3)n3ncnc(N)c23)C1` [Example 306, (R)-5-(4-amino-5-(3-(5-(difluoromethyl)-3-(2-(dimethylamino)ethoxy)thiophene-2-carboxamido)piperidin-1-yl)pyrrolo[2,1-f] [1,2,4]triazin-7-yl)picolinamide] gave an IC50 of 11 nM. For `CN(C)CCOc1cc(C(F)F)sc1C(=O)N[C@@H]1CCCN(c2cc(-c3cncnc3)n3ncnc(N)c23)C1` [Example 307, (R)-N-(1-(4-amino-7-(pyrimidin-5-yl)pyrrolo[2,1-f] [1,2,4]triazin-5-yl)piperidin-3-yl)-5-(difluoromethyl)-3-(2-(dimethylamino)ethoxy)thiophene-2-carboxamide], the IC50 was 27 nM. With `CN(C)CCOc1cc(C(F)F)sc1C(=O)N[C@@H]1CCCN(c2cc(-c3ccc(C=O)cc3)n3ncnc(N)c23)C1` [Example 308, (R)-N-(1-(4-amino-7-(4-formylphenyl)pyrrolo[2,1-f][1,2,4]triazin-5-yl)piperidin-3-yl)-5-(difluoromethyl)-3-(2-(dimethylamino)ethoxy)thiophene-2-carboxamide] the IC50 was 1 nM. For `CN(C)CCOc1cc(C(F)F)sc1C(=O)N[C@@H]1CCCN(c2cc(-c3ccc(=O)n(CC(F)F)c3)n3ncnc(N)c23)C1` [Example 309, (R)-N-(1-(4-amino-7-(1-(2,2-difluoroethyl)-6-oxo-1,6-dihydropyridin-3-yl)pyrrolo[2,1-f][1,2,4]triazin-5-yl)piperidin-3-yl)-5-(difluoromethyl)-3-(2-(dimethylamino)ethoxy)thiophene-2-carboxamide], the IC50 was 17 nM. In the case of `CN(C)CCOc1cc(C(F)F)sc1C(=O)N[C@@H]1CCCN(c2cc(-c3ccc(C#N)nc3)n3ncnc(N)c23)C1` [Example 310, (R)-N-(1-(4-amino-7-(6-cyanopyridin-3-yl)pyrrolo[2,1-f] [1,2,4]triazin-5-yl)piperidin-3-yl)-5-(difluoromethyl)-3-(2-(dimethylamino)ethoxy)thiophene-2-carboxamide], the IC50 is reported as 3 nM. Molecule `Cc1cc(-c2cc(N3CCC[C@@H](NC(=O)c4sc(C(F)F)cc4OCCN(C)C)C3)c3c(N)ncnn23)cc(C(F)F)n1` [Example 312, (R)-N-(1-(4-amino-7-(2-(difluoromethyl)-6-methylpyridin-4-yl)pyrrolo[2,1-f] [1,2,4]triazin-5-yl)piperidin-3-yl)-5-(difluoromethyl)-3-(2-(dimethylamino)ethoxy)thiophene-2-carboxamide] has an IC50 of 32 nM. `CN(C)CCOc1cc(C(F)F)sc1C(=O)N[C@@H]1CCCN(c2cc(-c3ccc(C#N)c(F)c3)n3ncnc(N)c23)C1` [Example 313] was tested, and the IC50 was 4 nM. `Nc1ncnn2c(-c3cncnc3)cc(N3CCC[C@@H](NC(=O)c4sc(C(F)F)cc4N4CC5(COC5)C4)C3)c12` [Example 314, (R)—N-(1-(4-amino-7-(pyrimidin-5-yl)pyrrolo[2,1-f][1,2,4]triazin-5-yl)piperidin-3-yl)-5-(difluoromethyl)-3-(2-oxa-6-azaspiro[3.3]heptan-6-yl)thiophene-2-carboxamide] showed an IC50 of 374 nM. `CC(=O)N1CC=C(c2cc(N3CCC[C@@H](NC(=O)c4sc(C(F)F)cc4N4CC5(COC5)C4)C3)c3c(N)ncnn23)C1` [Example 315, (R)-N-(1-(7-(1-acetyl-2,5-dihydro-1H-pyrrol-3-yl)-4-aminopyrrolo[2,1-f][1,2,4]triazin-5-yl)piperidin-3-yl)-5-(difluoromethyl)-3-(2-oxa-6-azaspiro[3.3]heptan-6-yl)thiophene-2-carboxamide] showed an IC50 of 65 nM. With `Nc1ncnn2c(-c3ccc(=O)n(CC(F)F)c3)cc(N3CCC[C@@H](NC(=O)c4sc(C(F)F)cc4N4CC5(COC5)C4)C3)c12` [Example 316, (R)-N-(1-(4-amino-7-(1-(2,2-difluoroethyl)-6-oxo-1,6-dihydropyridin-3-yl)pyrrolo[2,1-f][1,2,4]triazin-5-yl)piperidin-3-yl)-5-(difluoromethyl)-3-(2-oxa-6-azaspiro[3.3]heptan-6-yl)thiophene-2-carboxamide] the IC50 was 31 nM. Work on `COC(=O)N1CC=C(c2cc(N3CCC[C@@H](NC(=O)c4sc(C(F)F)cc4N4CC5(COC5)C4)C3)c3c(N)ncnn23)C1` [Example 317, Methyl (R)-3-(4-amino-5-(3-(5-(difluoromethyl)-3-(2-oxa-6-azaspiro[3.3]heptan-6-yl)thiophene-2-carboxamido)piperidin-1-yl)pyrrolo[2,1-f][1,2,4]triazin-7-yl)-2,5-dihydro-1H-pyrrole-1-carboxylate] yielded an IC50 of 34 nM. With `N#Cc1ccc(-c2cc(N3CCC[C@@H](NC(=O)c4sc(C(F)F)cc4N4CCOCC4)C3)c3c(N)ncnn23)cn1` [Example 318, (R)—N-(1-(4-amino-7-(6-cyanopyridin-3-yl)pyrrolo[2,1-f][1,2,4]triazin-5-yl)piperidin-3-yl)-5-(difluoromethyl)-3-morpholinothiophene-2-carboxamide] the IC50 was 15 nM. Molecule `CC(=O)N1CC=C(c2cc(N3CCC[C@@H](NC(=O)c4sc(C(F)F)cc4N4CCOCC4)C3)c3c(N)ncnn23)C1` [Example 319, (R)-N-(1-(7-(1-acetyl-2,5-dihydro-1H-pyrrol-3-yl)-4-aminopyrrolo[2,1-f][1,2,4]triazin-5-yl)piperidin-3-yl)-5-(difluoromethyl)-3-morpholinothiophene-2-carboxamide] has an IC50 of 11 nM.
